The values that follow come from the supplement of paper PMC9663587.
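For GR50, 72 h in this document: breast cancer and non-malignant breast epithelial cell lines, Deep Dye Drop or Dye Drop imaging, nine half-log doses, GR normalized to time-zero plates and DMSO-only controls.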

Compound in one assay: T1, CC(=O)c1c(C)c2cnc(Nc3ccc(N4CCN(CCOCCOCCOCCNC(=O)COc5cccc6c5C(=O)N(C5CCC(=O)NC5=O)C6=O)CC4)cn3)nc2n(C2CCCC2)c1=O [BSJ-03-123]
Description: GR value, 72 h; higher = faster growth (1 = untreated, <0 = killing).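 Also: breast cancer and non-malignant breast epithelial lines, nine half-log doses, viable cells counted by Hoechst and LIVE/DEAD dye imaging versus time-zero plates and DMSO controls.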 The conditions noted are these: 3.162 µM.
For the cell line SUM190PT, the GR value stood at 0.354 GR.

In the case of SUM229PE, the GR value came out at 0.497 GR.

Take T47D: the GR value was 0.165 GR.

The assay is the same for the next values; noted with them: 10 µM.
On to SUM52PE, for which the GR value was determined as 0.228 GR.

Take SUM149: the GR value is 0.0273 GR.

As for SUM159, the GR value is -0.042 GR.

As for SUM190PT, the GR value is -0.286 GR.

For SUM229PE, the GR value turned out to be 0.114 GR.

Consider T47D, for which the GR value was 0.118 GR.

Compound in another assay: CCc1cnn2c(NCc3ccc[n+]([O-])c3)cc(N3CCCC[C@H]3CCO)nc12
The description is as above. The conditions noted are these: 0.0001 µM.
Turning to SUM52PE, the GR value was determined as 1.08 GR.

In the case of SUM149, the GR value was found to be 1.01 GR.

SUM159: the GR value came to 1.01 GR.

With SUM190PT, the GR value turned out to be 0.917 GR.

Take SUM229PE: the GR value amounted to 1.04 GR.

With T47D, the GR value is 0.999 GR.

The same assay, now with this note: 0.0003162 µM.
On to SUM52PE, for which the GR value amounted to 1.14 GR.

For the cell line SUM149, the GR value amounted to 1.04 GR.

With SUM159, the GR value was 1.01 GR.

Take SUM190PT: the GR value is 0.931 GR.

As to SUM229PE, the GR value was 1.02 GR.

For T47D, the GR value turned out to be 1.01 GR.

The assay is the same for the next values; noted with them: 0.001 µM.
Consider SUM52PE, for which the GR value came to 1.01 GR.

As for SUM149, the GR value was determined as 1.01 GR.

In the case of SUM159, the GR value amounted to 1.02 GR.

On to SUM190PT, for which the GR value was 0.951 GR.

On to SUM229PE, for which the GR value stood at 0.991 GR.

With T47D, the GR value came out at 1.08 GR.

Staying with this assay, now noted: 0.003162 µM.
With SUM52PE, the GR value was determined as 1.05 GR.

Consider SUM149, for which the GR value came to 1.03 GR.

With SUM159, the GR value stood at 1.02 GR.

As for SUM190PT, the GR value was found to be 1.06 GR.

Take SUM229PE: the GR value is 1.01 GR.

As for T47D, the GR value worked out at 1.12 GR.

Still in this assay, the particulars now being: 0.01 µM.
With SUM52PE, the GR value is 0.925 GR.

SUM149: the GR value worked out at 0.828 GR.

SUM159: the GR value was 0.937 GR.

SUM190PT: the GR value was found to be 0.98 GR.

Regarding SUM229PE, the GR value was 0.796 GR.

Regarding T47D, the GR value amounted to 1.05 GR.

The same assay, now with this note: 0.03162 µM.
As for SUM52PE, the GR value was -0.0619 GR.

SUM149: the GR value is -0.457 GR.

Consider SUM159, for which the GR value was -0.0092 GR.

SUM190PT: the GR value is -0.207 GR.

As for SUM229PE, the GR value was -0.122 GR.

As to T47D, the GR value was -0.0667 GR.

Still in this assay, the particulars now being: 0.1 µM.
Turning to SUM52PE, the GR value is -0.245 GR.

Take SUM149: the GR value is -0.575 GR.

For the cell line SUM159, the GR value is -0.0413 GR.

With SUM190PT, the GR value was -0.627 GR.

Take SUM229PE: the GR value was -0.194 GR.

T47D: the GR value was -0.128 GR.

Staying with this assay, now noted: 0.3162 µM.
SUM52PE: the GR value is -0.322 GR.

As for SUM149, the GR value was -0.578 GR.

Turning to SUM159, the GR value is -0.0777 GR.

Regarding SUM190PT, the GR value is -0.643 GR.

Regarding SUM229PE, the GR value was -0.203 GR.

Take T47D: the GR value is -0.19 GR.

Staying with this assay, now noted: 1 µM.
On to SUM52PE, for which the GR value is -0.175 GR.

SUM149: the GR value is -0.561 GR.

On to SUM159, for which the GR value was -0.119 GR.

For SUM190PT, the GR value is -0.724 GR.

With SUM229PE, the GR value was -0.209 GR.

For the cell line T47D, the GR value was -0.22 GR.

Compound in the next assay: CN1CC[C@H](c2c(O)cc(O)c3c(=O)cc(-c4ccccc4Cl)oc23)[C@H](O)C1 [Flavopiridol]
Assay: not given
Conditions: not given
In the case of SUM52PE, the “GR50, 72 h” value is 0.234 µM.

With SUM149, the “GR50, 72 h” value was determined as 0.196 µM.

For the cell line SUM159, the “GR50, 72 h” value came out at 0.127 µM.

For SUM190PT, the “GR50, 72 h” value turned out to be 0.0802 µM.

As for SUM229PE, the “GR50, 72 h” value is 0.109 µM.

T47D: the “GR50, 72 h” value was found to be 0.116 µM.

Compound in the next assay: CN(C)C/C=C/C(=O)Nc1ccc(O[C@@H]2CCC[C@@H](Nc3ncc(Cl)c(-c4c[nH]c5ccccc45)n3)C2)cc1 [BSJ-01-175]
Assay: not given
Conditions: not given
Consider SUM52PE, for which the “GR50, 72 h” value amounted to 0.0947 µM.

Regarding SUM149, the “GR50, 72 h” value was determined as 0.0356 µM.

With SUM159, the “GR50, 72 h” value was 0.0681 µM.

Consider SUM190PT, for which the “GR50, 72 h” value was determined as 0.00573 µM.

Take SUM229PE: the “GR50, 72 h” value stood at 0.0424 µM.

For the cell line T47D, the “GR50, 72 h” value worked out at 0.189 µM.

Compound in a further assay: CN1CCN(CCOc2cc(OC3CCOCC3)c3c(Nc4c(Cl)ccc5c4OCO5)ncnc3c2)CC1 [Saracatinib/AZD0530]
Assay: not given
Conditions: not given
As to SUM52PE, the “GR50, 72 h” value came out at 9.64 µM.

Take SUM149: the “GR50, 72 h” value is 2.49 µM.

Turning to SUM159, the “GR50, 72 h” value was greater than 10 µM.

Take SUM190PT: the “GR50, 72 h” value was greater than 10 µM.

For SUM229PE, the “GR50, 72 h” value came to 5.44 µM.

T47D: the “GR50, 72 h” value stood at 3.95 µM.

Compound in another assay: CN(C)CC[C@H](CSc1ccccc1)Nc1ccc(S(=O)(=O)NC(=O)c2ccc(N3CCN(Cc4ccccc4-c4ccc(Cl)cc4)CC3)cc2)cc1[N+](=O)[O-] [ABT-737]
Assay: not given
Conditions: not given
Turning to SUM52PE, the “GR50, 72 h” value came out at 9.12 µM.

As to SUM149, the “GR50, 72 h” value came out at 3.63 µM.

On to SUM159, for which the “GR50, 72 h” value was greater than 10 µM.

SUM190PT: the “GR50, 72 h” value was found to be 0.362 µM.

As for SUM229PE, the “GR50, 72 h” value worked out at 8.41 µM.

For T47D, the “GR50, 72 h” value is greater than 10 µM.

Compound in another assay: CNCc1ccc(-c2[nH]c3cc(F)cc4c3c2CCNC4=O)cc1 [Rucaparib]
Assay: not given
Conditions: not given
For the cell line SUM52PE, the “GR50, 72 h” value was greater than 10 µM.

With SUM149, the “GR50, 72 h” value is greater than 10 µM.

Take SUM159: the “GR50, 72 h” value was greater than 10 µM.

Turning to SUM190PT, the “GR50, 72 h” value is greater than 10 µM.

For the cell line SUM229PE, the “GR50, 72 h” value was greater than 10 µM.

For T47D, the “GR50, 72 h” value was greater than 10 µM.

Compound in the next assay: CN(C)C/C=C/C(=O)Nc1ccc(C(=O)Nc2cccc(Nc3ncc(Cl)c(-c4c[nH]c5ccccc45)n3)c2)cc1 [THZ1]
Assay: not given
Conditions: not given
With SUM52PE, the “GR50, 72 h” value was determined as 0.0156 µM.

For SUM149, the “GR50, 72 h” value is 0.0493 µM.

As for SUM159, the “GR50, 72 h” value worked out at 0.361 µM.

Regarding SUM190PT, the “GR50, 72 h” value worked out at 0.00565 µM.

Turning to SUM229PE, the “GR50, 72 h” value stood at 0.0185 µM.

Turning to T47D, the “GR50, 72 h” value is 0.0293 µM.

Compound in a further assay: CCOc1cc2ncc(C#N)c(Nc3ccc(OCc4ccccn4)c(Cl)c3)c2cc1NC(=O)/C=C/CN(C)C [Neratinib/HKI272]
Assay: not given
Conditions: not given
SUM52PE: the “GR50, 72 h” value came to 3.11 µM.

On to SUM149, for which the “GR50, 72 h” value stood at 0.0697 µM.

Turning to SUM159, the “GR50, 72 h” value was greater than 3.16 µM.

Take SUM190PT: the “GR50, 72 h” value turned out to be 1.88 µM.

For the cell line SUM229PE, the “GR50, 72 h” value worked out at 0.419 µM.

As to T47D, the “GR50, 72 h” value turned out to be 0.423 µM.

Compound in a further assay: CC1=CN2C(=O)C=C(N=C2C(=C1)C(C)NC3=CC=CC=C3)N4CCOCC4 [TGX221]
Assay: not given
Conditions: not given
For the cell line SUM52PE, the “GR50, 72 h” value is greater than 10 µM.

Regarding SUM149, the “GR50, 72 h” value is greater than 10 µM.

As to SUM159, the “GR50, 72 h” value is greater than 10 µM.

For the cell line SUM190PT, the “GR50, 72 h” value is greater than 10 µM.

Regarding SUM229PE, the “GR50, 72 h” value is greater than 10 µM.

Consider T47D, for which the “GR50, 72 h” value is greater than 10 µM.

Compound in another assay: T1, BSJ-03-123
Assay: not given
Conditions: not given
Consider SUM52PE, for which the “GR50, 72 h” value was 3.42 µM.

SUM149: the “GR50, 72 h” value came out at 1.33 µM.

As to SUM159, the “GR50, 72 h” value turned out to be 1.94 µM.

For SUM190PT, the “GR50, 72 h” value was found to be 0.0593 µM.

As for SUM229PE, the “GR50, 72 h” value is 1.64 µM.

Take T47D: the “GR50, 72 h” value was 0.00165 µM.

Compound in another assay: COc1ccc2c(c1)[C@]1(C[C@H]1c1ccc3c(/C=C/c4ccc(CN5C[C@@H](C)O[C@@H](C)C5)cc4)n[nH]c3c1)C(=O)N2
Assay: not given
Conditions: not given
Consider SUM52PE, for which the “GR50, 72 h” value is 0.00559 µM.

Regarding SUM149, the “GR50, 72 h” value worked out at 0.00332 µM.

Regarding SUM159, the “GR50, 72 h” value was 0.00426 µM.

With SUM190PT, the “GR50, 72 h” value amounted to 0.00062 µM.

For the cell line SUM229PE, the “GR50, 72 h” value came to 0.00229 µM.

Take T47D: the “GR50, 72 h” value amounted to 0.00463 µM.
